Assay [1] deals with T1, human estrogen receptor α (Homo sapiens, UniProt P03372).
T1 construct: expressed in transfected cells; host or cells: CHO cells (CHO-ERRO 2B1-1E9), stably co-transfected with rat oxytocin promoter-luciferase reporter
T1 sequence (P03372 1-595): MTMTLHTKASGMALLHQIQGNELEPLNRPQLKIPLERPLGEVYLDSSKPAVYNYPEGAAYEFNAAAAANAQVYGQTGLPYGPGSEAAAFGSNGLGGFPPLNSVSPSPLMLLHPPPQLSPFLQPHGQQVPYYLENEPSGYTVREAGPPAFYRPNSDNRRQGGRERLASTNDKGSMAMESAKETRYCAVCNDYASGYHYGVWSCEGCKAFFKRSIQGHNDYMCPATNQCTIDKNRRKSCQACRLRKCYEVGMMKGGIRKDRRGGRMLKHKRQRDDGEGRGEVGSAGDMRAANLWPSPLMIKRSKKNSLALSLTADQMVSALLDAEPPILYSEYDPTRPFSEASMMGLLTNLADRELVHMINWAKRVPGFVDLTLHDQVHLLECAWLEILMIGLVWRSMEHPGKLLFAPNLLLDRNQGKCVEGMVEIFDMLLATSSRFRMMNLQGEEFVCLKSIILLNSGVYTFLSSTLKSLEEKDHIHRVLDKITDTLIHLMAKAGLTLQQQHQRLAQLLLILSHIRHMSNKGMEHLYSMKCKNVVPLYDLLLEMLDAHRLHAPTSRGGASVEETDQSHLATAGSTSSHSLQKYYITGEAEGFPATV
The experiment in a line: CHO-ERα bioassay: luciferase transactivation, estrogenic and anti-estrogenic activity. The class given is cell-based. The note with it: agonist or antagonist in recombinant CHO cells with hERα, rat oxytocin promoter, luciferase reporter; standard Org 2317 (estradiol). On the procedure: (§1) Test medium: Intact recombinant CHO cells stably co-transfected with the rat oxytocin promoter and the luciferase reporter gene and either the human estrogen receptor β or the human estrogen receptor α. Both cell lines have been produced within the Department of Biotechnology and Biochemistry (BBC) (N. V. Organon) and are known under the name CHO-ERRO 2B1-1E9 for CHO-ERα and CHO-ERβ RO LUC for CHO-ERβ. The estrogenic activity of compounds is determined in an in vitro bioassay (CHO-ERα) with recombinant Chinese hamster ovary (CHO) cells stably co-transfected with the human estrogen α (hERα), the rat oxytocin promoter (RO) and the luciferase reporter gene (LUC). The estrogenic activity (potency ratio) of a test compound to promote the transactivation of the enzyme luciferase mediated via the estrogen receptor α is compared with the standard estrogen Org 2317 (estradiol 1,3,5 (10)-estratriene-3,17β-diol). The estrogenic activity (potency ratio) of a test compound to promote the transactivation of the enzyme luciferase mediated via the estrogen receptor β is determined in the same fashion but using recombinant Chinese hamster ovary (CHO) cells stably co-transfected with the human estrogen β (hERβ) (bioassay CHO-ERβ). The anti-estrogenic activity of compounds is determined in the same bioassays (CHO-ERα and CHO-ERβ), but now the anti-ERα and anti-ERβ activity (potency ratio) of a test compound to inhibit the transactivation of the enzyme luciferase mediated via ERα or ERβ by Org 2317 (estradiol 1,3,5 (10)-estratriene-3,17β-diol) is measured.

Assay [2] concerns the target T2, human estrogen receptor β (Homo sapiens, UniProt Q92731).
T2 construct: expressed in transfected cells; host or cells: CHO cells (CHO-ERβ RO LUC), stably co-transfected with rat oxytocin promoter-luciferase reporter
The assay can be described thus: CHO-ERβ bioassay: luciferase transactivation, estrogenic and anti-estrogenic activity. The format is cell-based. As to conditions: agonist or antagonist in recombinant CHO cells with hERβ, rat oxytocin promoter, luciferase reporter; standard Org 2317 (estradiol). On the procedure:
as §1
For orientation: A reporter such as luciferase makes a cellular process visible.

The structures appear in SMILES notation.

T2 sequence (Q92731 whole entry): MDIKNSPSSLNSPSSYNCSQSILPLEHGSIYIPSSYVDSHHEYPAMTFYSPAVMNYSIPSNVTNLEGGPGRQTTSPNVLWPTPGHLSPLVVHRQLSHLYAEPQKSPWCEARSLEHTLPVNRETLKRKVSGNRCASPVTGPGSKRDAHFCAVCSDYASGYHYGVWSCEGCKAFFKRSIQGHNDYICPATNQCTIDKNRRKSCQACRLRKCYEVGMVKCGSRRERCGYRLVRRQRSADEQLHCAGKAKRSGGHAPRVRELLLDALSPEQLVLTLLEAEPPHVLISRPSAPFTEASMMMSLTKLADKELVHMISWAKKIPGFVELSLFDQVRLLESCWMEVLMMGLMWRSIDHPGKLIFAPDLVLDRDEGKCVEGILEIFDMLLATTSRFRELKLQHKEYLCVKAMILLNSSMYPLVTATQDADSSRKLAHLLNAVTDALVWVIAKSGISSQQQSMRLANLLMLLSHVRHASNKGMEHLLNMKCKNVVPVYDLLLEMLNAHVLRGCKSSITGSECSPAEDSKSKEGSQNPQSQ

As for `C=CC[C@H]1C[C@]2(C)[C@@H](O)CC[C@H]2[C@@H]2CCc3cc(O)ccc3[C@@H]12` [Compound 1], the ER-α entry in assay [1] is on record as “agonist”. The ER-β result in assay [2] is given as “agonist”.
In the case of `C=CCC[C@H]1C[C@]2(C)[C@@H](O)CC[C@H]2[C@@H]2CCc3cc(O)ccc3[C@@H]12` [Compound 2], the ER-α entry in assay [1] is given as “agonist”. For the same compound, in assay [2], the ER-β result is recorded as “agonist”.
On to `C=CCCC[C@H]1C[C@]2(C)[C@@H](O)CC[C@H]2[C@@H]2CCc3cc(O)ccc3[C@@H]12` [Compound 3], for which the ER-α entry in assay [1] is “agonist”. In assay [2], the ER-β entry was “antagonist”.
Take `C#CCC[C@H]1C[C@]2(C)[C@@H](O)CC[C@H]2[C@@H]2CCc3cc(O)ccc3[C@@H]12` [Compound 4]: the ER-α entry in assay [1] was “agonist”. In addition, in assay [2], the ER-β entry is given as “agonist”.
Turning to `CC#CCC[C@H]1C[C@]2(C)[C@@H](O)CC[C@H]2[C@@H]2CCc3cc(O)ccc3C12` (stereo partly shown) [Compound 5], in assay [1], the ER-α entry is given as “agonist”. Besides, the ER-β result in assay [2] was “antagonist”.
The like results for `C#CCCC[C@H]1C[C@]2(C)[C@@H](O)CC[C@H]2[C@@H]2CCc3cc(O)ccc3[C@@H]12` [Compound 6] were, in that order, “agonist” and “antagonist”.
The like results for `C[C@]12C[C@H](CC=C3CC3)[C@@H]3c4ccc(O)cc4CC[C@H]3[C@@H]1CC[C@@H]2O` [Compound 7] were, in that order, “agonist” and “agonist”.
The like results for `C[C@]12C[C@H](CCC=C3CC3)[C@@H]3c4ccc(O)cc4CC[C@H]3[C@@H]1CC[C@@H]2O` [Compound 8] were, in that order, “agonist” and “antagonist”.
Take `CCC[C@H]1C[C@]2(C)[C@@H](O)CC[C@H]2[C@@H]2CCc3cc(O)ccc3[C@@H]12` [Compound 9]: the ER-α entry in assay [1] is listed as “agonist”. In addition, the ER-β result in assay [2] is listed as “agonist”.
With `CCCC[C@H]1C[C@]2(C)[C@@H](O)CC[C@H]2[C@@H]2CCc3cc(O)ccc3[C@@H]12` [Compound 10], the ER-α result in assay [1] is “agonist”. In addition, in assay [2], the ER-β result was “agonist”.
With `CCCCC[C@H]1C[C@]2(C)[C@@H](O)CC[C@H]2[C@@H]2CCc3cc(O)ccc3[C@@H]12` [Compound 11], the ER-α entry in assay [1] is “agonist”. The ER-β entry in assay [2] is listed as “antagonist”.
